Laboratory results as given in patent publication EP0229718A2, “Labelling blood cells” (AMERSHAM INTERNATIONAL plc, priority 1986, dated 1987).

What was measured:
[1] = tested on: inflammatory disease; assay: Imaging of inflammatory disease in patients with labelled leucocytes (Example 6); type: in vivo
Experimental: (§1) Hexamethylpropylene-amineoxime (HMPAO) forms a lipid-soluble neutral complex with ^99mTc which is rapidly incorporated into leucocytes in vitro. In six patients with suspected or known inflammatory disease, a "mixed" leucocyte suspension isolated from 85 ml blood anticoagulated with acid-citrate-dextrose was labelled by ^99mTc-HMPAO with a mean efficiency of 47%, of which 78% was taken up by granulocytes. […] Four patients also received ¹¹¹In-labelled "pure" granulocytes.
(§2) This experiment is described in more detail in The Lancet, October 25 1986, pages 946-949.

[2] = tested on: "mixed" leucocyte suspension; assay: In vitro labelling of a mixed leucocyte suspension from patients (Example 6); type: cell-based
Experimental: as §1, §2

## C/C(=N\[O-])[C@@H](C)[N-]CC(C)(C)C[N-][C@H](C)/C(C)=N/O.[O]=[99Tc+3] (racemic) [^99mTc-HMPAO]
[1]; at 30-40 min, mean
  granulocyte recovery in blood: 32%
[1]; four patients also received ¹¹¹In-labelled granulocytes
  image detail compared with ¹¹¹In-labelled "pure" granulocytes: comparable or superior to the ¹¹¹In images
[1]; six patients, from 30 min (five patients) or 3 h (sixth), remained positive at 20-24 h
  detection of inflammatory disease by imaging: All six patients were positive for inflammatory disease
[2]; elution compared with other cell types
  retention of label in granulocytes in vitro: remained firmly labelled
[2]; of the cell-bound label
  share of the label taken up by granulocytes: 78%
[2]; six patients, leucocytes from 85 ml blood anticoagulated with acid-citrate-dextrose
  mean labelling efficiency: 47%
